# Test results taken from patent US20200384072A1, “THERAPY OF IONIZING RADIATION-INDUCED DISORDERS” (SCK-CEN, priority 2019, published 2020).
# What was measured:
# TIME cells = test: DNA damage, gamma H2AX and TP53BP1 foci, TIME cells; assay type: cell-based, human; details: 100 μM TAT-Gap19, 0.1 and 5 Gy, 1 h p.i.
# Procedure: To detect DNA double strand breaks after IR, TICAE and TIME cells were seeded in Nunc™ Lab-Tek™ Chamber Slide (Thermo Fisher Scientific, Asse, Belgium) in 8 replicates, at seeding density of 50 000 cells/well. Two days later, cells reached 100% confluence. At 30 min before IR, a fresh medium was added to the cells with or without 100 μM TAT-Gap19. At 1 h post irradiation, cells were fixed with 2% PFA (Sigma-Aldrich Co. LCC, Diegem, Belgium) and permeabilized with 0.25% Triton X-100 (Sigma-Aldrich Co. LCC, Diegem, Belgium) in PBS. Cells were blocked for 1 h in 1% normal goat serum (Thermo Fisher Scientific, Asse, Belgium) in Tris-NaCl (Perkin Elmer, Brussels, Belgium). Thereafter, staining with 1/300 primary anti-gamma H2AX antibody (Merck-Millipore #05-636) and 1/1000 anti-TP53BP1 antibody (Novus Biologicals #NB100-304) was performed for 1 h at 37° C. After washing 3 times with PBS, secondary Alexa Fluor 488 and 568 antibodies (Life Technologies, Merelbeke, Belgium) were applied for 1 h at 37° C. Finally, the slides were mounted using ProLong Diamond Antifade Mountant with DAPI (Life Technologies, Merelbeke, Belgium), and cells were visualized with an Eclipse Ti automated inverted wide-field epifluorescence microscope (Nikon, Brussels, Belgium) equipped with a 20×Plan Fluor objective (NA 0.6) and an Andor Ixon EMCCD camera, controlled by the MS Elements software. […]
# TICAE cells [1] = test: Cell death, Annexin V and Caspase 3/7 live cell imaging, TICAE cells; assay type: cell-based, human
# Procedure: TICAE and TIME cells were seeded in 96 well plates at a density of 10000 cells/well in 8 biological replicates. After three days, cells were at 100% confluence. At 30 minutes before X-ray exposure, cells were refreshed with 200 μl medium supplemented with Caspase 3/7 reagent (1:1000 dilution) and Annexin V reagent (1:200 dilution) (Essen Bioscience, United Kingdom) with or without 100 μM TAT-Gap19 (Genosphere Biotechnologies, Paris, France). Fluorescence signals were measured from 4 h until 100 h after irradiation by imaging every 2 hours using the IncuCyte ZOOM® system (Essen BioScience, Ann Arbor, Mich., USA). Different channels (TRITC, FITC and phase contrast) and a 10× objective were used. Spectral unmixing set as 8% of red removed from green was applied. The IncuCyte software's processing definition was set to recognize red (Annexin V) and green (Caspase 3/7) stained cells, making use of the Top-Hat background subtraction method. Fluorescence signal was normalized to cell count.
# Cx43 hemichannels = molecular target: T1, Cx43 hemichannels (Homo sapiens, UniProt P17302); test: Propidium iodide dye uptake assay after irradiation, TIME cells; assay type: cell-based
# T1 construct: endogenous in cells; host or cells: TICAE and TIME cells (human endothelial cell lines)
# T1 sequence (P17302 whole entry): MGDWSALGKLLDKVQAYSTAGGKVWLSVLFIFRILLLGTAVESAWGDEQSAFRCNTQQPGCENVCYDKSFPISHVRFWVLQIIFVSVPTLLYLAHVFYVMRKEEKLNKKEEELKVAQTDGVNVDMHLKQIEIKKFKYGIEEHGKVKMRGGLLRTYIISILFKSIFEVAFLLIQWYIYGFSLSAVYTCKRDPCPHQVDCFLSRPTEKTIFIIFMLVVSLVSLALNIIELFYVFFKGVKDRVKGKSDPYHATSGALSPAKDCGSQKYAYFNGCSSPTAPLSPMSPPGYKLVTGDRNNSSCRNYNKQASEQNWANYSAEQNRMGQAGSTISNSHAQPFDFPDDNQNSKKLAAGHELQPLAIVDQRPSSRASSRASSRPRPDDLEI
# Source text: Hemichannel opening was also investigated by dye uptake studies making use of the hemichannel permeable fluorescent tracer propidium iodide (PI; MW 668.4 Da). In addition, dextran fluorescein 10 kDa dye was used to assess membrane integrity and occurrence of cell death. PI stains cells with open hemichannels, late apoptotic and necrotic cells, while dextran fluorescein only stains late apoptotic and necrotic cells. Therefore, PI-positive and dextran fluorescein-negative cells are a measure for hemichannel opening while dextran fluorescein-positive cells are a measure for dead cells.
# TICAE and TIME cells were seeded in a 24-well plate at a density of 1.25×10^5 and 1.5×10^5 cells/well, respectively, in six biological replicates. Three days later, cells reached 100% confluence. Thirty minutes before irradiation, cells were refreshed with 1 ml medium alone or with medium supplemented with 100 μM TAT-Gap19 (Genosphere Biotechnologies, Paris, France). For fractionated irradiation, cells were refreshed with 1.5 ml medium/well. […] Finally, the fluorescence was measured using an IncuCyte ZOOM® system (Essen BioScience, Ann Arbor, Mich., USA) by using different channels (TRITC, FITC and phase contrast) and a 10× objective Fluorescence signal was normalized to cell number.
# TICAE cells [2] = test: Senescence-associated β-galactosidase CPRG assay, TICAE cells; assay type: cell-based, human
# Procedure: TICAE and TIME cells were seeded in 96 well plates at a density of 10000 cells/well in 16 replicates. Three days after, cells were at 100% confluent. At 30 minutes before X-ray exposure, the cells were refreshed with 150 μl medium alone or with medium supplemented with 100 μM TAT-Gap19 (Genosphere Biotechnologies, Paris, France). For 7 d and 9 d post irradiation experiments, the medium was refreshed once, while for 14 d post irradiation experiment the medium was refreshed twice with 200 μl medium alone or with medium supplemented with 100 μM TAT-Gap19. At 7, 9 and 14 days post irradiation, cell number was determined using an Incucyte® ZOOM life cell analysis system and related software (Essen Bioscience, Hertfordshire, United Kingdom). Afterwards, the senescence associated β-galactosidase activity in the cells was determined using the chlorophenol red β-D-galactopyranoside (CPRG) assay as described previously. The cells were washed with PBS and lysed using M-PER™ buffer (Thermo Fisher Scientific, Asse, Belgium). Subsequently, 1×CPRG substrate (2 mM Chloropenol Red β-D-galactopyranoside in CPRG assay buffer containing 50 mM KPO4, 1 mM MgCl2, pH 6) (Sigma-Aldrich, Overijse, Belgium) was added to each well and the plates incubated for 18 h at 37° C. without CO2. A CLARIOstar® microplate reader (BMG Labtech, Temse, Belgium) was used to measure the absorbance at 570 nm.
# [3] = 100 μM TAT-Gap19, 0 Gy and 0.1 Gy, from 4-16 h p.i. until the end
# [4] = 100 μM TAT-Gap19, 5 Gy, from 12 h p.i. until end of recording (100 h)
substance,measurement,setting,value
"TAT-Gap19: connexin mimetic peptide, amino-acids 128-136 of the CL of Cx43 (SEQ ID NO: 2), Gap19 linked to TAT sequence; Cx43 hemichannel inhibitor (YGRKKRRQRRRKQIEIKKFK)","gamma H2AX, TP53BP1 and colocalized foci (radiation-induced DNA damage)",TIME cells,not affected
same,Annexin V,TICAE cells [1]; [3],significantly reduced
same,Caspase 3/7 activity,TICAE cells [1]; [3],significantly reduced
same,Annexin V,TICAE cells [1]; [4],significantly reduced
same,Caspase 3/7 activity,TICAE cells [1]; [4],significantly reduced
same,radiation-induced PI dye uptake,"Cx43 hemichannels; 100 μM TAT-Gap19, fractionated 5 Gy, 72 h",had no effect
same,radiation-induced PI dye uptake,"Cx43 hemichannels; 100 μM TAT-Gap19, single irradiation, 72 h p.i.",most clear and significant at the 72 h p.i. time point
same,SA β-gal activity,"TICAE cells [2]; 100 μM TAT-Gap19, 0 Gy and 5 Gy, 9 d p.i.",significantly reduced SA β-gal activity
same,SA β-gal activity (radiation responses),"TICAE cells [2]; 100 μM TAT-Gap19, 0.1 Gy and 5 Gy, 14 d p.i.",significantly inhibited these responses
same,SA β-gal activity,"TICAE cells [2]; 100 μM TAT-Gap19, control, 0.1 Gy and 5 Gy, 7 d p.i.",significantly reduced SA β-gal activity
